Key:
EED = EED (Homo sapiens, UniProt O75530); experiment: EED TR-FRET Binding Assay (modified LanthaScreen competition assay)
Method: Compounds were tested in a modified LanthaScreen competition assay.
The following buffer was used to set up the binding reactions: 20 mM Tris-HCl pH 7.5, 200 mM NaCl, 0.01% Tween-20, 10 uM DTT (dithiothreitol), and 0.05% BSA (bovine serum albumin), with the DTT and BSA added fresh prior to initiating the binding assay. […] The reactions were then incubated for 1 hour at 25° C. in a humidified chamber prior to detection on the Perkin Elmer Envision plate reader using a Lanthascreen TR-FRET protocol.

Pfeiffer cells = experiment: CTG cell viability assay (CellTiter-Glo); type: cell-based; conditions: Homo sapiens, 240 h; Pfeiffer cells, 10 days with compound, CellTiter-Glo; read-out: Cell Proliferation IC50
Method: 1,000 cells were plated into each well of 96-well Corning CellBing cell culture plates and incubated overnight at 37° C. in a humidified CO2 incubator. […] The cell culture plates were then incubated for 10 more days. CTG cell viability assay was performed on the cell culture samples by using CellTiter-Glo® Luminescent Cell Viability Assay Kit (Promega).

EED, sequence (O75530 whole entry): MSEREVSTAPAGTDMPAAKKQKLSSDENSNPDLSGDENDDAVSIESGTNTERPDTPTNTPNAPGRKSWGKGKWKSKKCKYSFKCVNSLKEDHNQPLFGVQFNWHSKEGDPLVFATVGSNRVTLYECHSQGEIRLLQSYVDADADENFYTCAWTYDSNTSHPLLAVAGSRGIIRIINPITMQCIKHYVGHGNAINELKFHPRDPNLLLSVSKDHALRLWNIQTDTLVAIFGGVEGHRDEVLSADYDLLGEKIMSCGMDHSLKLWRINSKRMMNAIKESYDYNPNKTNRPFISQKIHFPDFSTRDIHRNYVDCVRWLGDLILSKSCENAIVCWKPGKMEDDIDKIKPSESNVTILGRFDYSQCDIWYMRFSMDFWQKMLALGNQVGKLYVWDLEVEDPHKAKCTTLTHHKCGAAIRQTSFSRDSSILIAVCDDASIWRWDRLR

Row | Structure (SMILES) | IC50 (EED) [nM] | IC50 (Pfeiffer cells) [nM]
1 | CN(C)[C@H]1CN(C2C[C@H](F)c3cccc(F)c32)C[C@@H]1c1ccc(S(C)(=O)=O)cc1 (mixture of isomers) [Example 30, rac-(3R,4S)-1-[(3S)-3,7-difluoro-2,3-dihydro-1H-inden-1-yl]-4-[4-(methanesulfonyl)phenyl]-N,N-dimethylpyrrolidin-3-amine] | 11.4 | 3100
2 | CN(C)[C@H]1CN(C2CCc3cccc(F)c32)C[C@@H]1c1cn(C)c2cc(C(=O)N3C[C@H](O)[C@@H](O)C3)ccc12 (mixture of isomers) [Example 114, rac-[(3S,4S)-3,4-dihydroxypyrrolidin-1-yl]{3-[(3S,4R)-4-(dimethylamino)-1-(7-fluoro-2,3-dihydro-1H-inden-1-yl)pyrrolidin-3-yl]-1-methyl-1H-indol-6-yl}methanone] | 5.58 | 3130
3 | CN(C)[C@H]1CN(C2CCc3cccc(F)c32)C[C@@H]1c1cn(C)c2c(C(=O)N3CCC[C@H]3CO)cccc12 (mixture of isomers) [Example 116, rac-{3-[(3S,4R)-4-(dimethylamino)-1-(7-fluoro-2,3-dihydro-1H-inden-1-yl)pyrrolidin-3-yl]-1-methyl-1H-indol-7-yl}[(2S)-2-(hydroxymethyl)pyrrolidin-1-yl]methanone] | 1.77 | 99.6
4 | CN(C)[C@H]1CN(C2CCc3cccc(F)c32)C[C@@H]1c1cn(C)c2c(C(=O)N3CC[C@H](O)C3)cccc12 (mixture of isomers) [Example 118, rac-{3-[(3S,4R)-4-(dimethylamino)-1-(7-fluoro-2,3-dihydro-1H-inden-1-yl)pyrrolidin-3-yl]-1-methyl-1H-indol-7-yl}[(3S)-3-hydroxypyrrolidin-1-yl]methanone] | 3.35 | 298
5 | CN(C)[C@@H]1CN(C2CCc3cccc(F)c32)C[C@H]1c1ccc(C(N)=O)cc1 (mixture of isomers) [Example 35, rac-4-[(3R,4S)-4-(dimethylamino)-1-(7-fluoro-2,3-dihydro-1H-inden-1-yl)pyrrolidin-3-yl]benzamide] | 6.8 | > 10000
6 | CN(C)[C@@H]1CN(C2CCc3cccc(F)c32)C[C@H]1c1ccc(N2CCNCC2)cc1 (mixture of isomers) [Example 41, rac-(3S,4R)-1-(7-fluoro-2,3-dihydro-1H-inden-1-yl)-N,N-dimethyl-4-[4-(piperazin-1-yl)phenyl]pyrrolidin-3-amine] | 1.99 | 188
7 | CC(=O)N1CCN(c2ccc([C@H]3CN(C4CCc5cccc(F)c54)C[C@@H]3N(C)C)cc2C)CC1 (mixture of isomers) [Example 60, rac-1-(4-{4-[(3S,4R)-4-(dimethylamino)-1-(7-fluoro-2,3-dihydro-1H-inden-1-yl)pyrrolidin-3-yl]-2-methylphenyl}piperazin-1-yl)ethan-1-one] | 6.62 | 302
8 | CN(C)[C@@H]1CN(C2CCc3cccc(F)c32)C[C@H]1c1ccc(-c2ncco2)cc1 (mixture of isomers) [Example 66, rac-(3S,4R)-1-(7-fluoro-2,3-dihydro-1H-inden-1-yl)-N,N-dimethyl-4-[4-(1,3-oxazol-2-yl)phenyl]pyrrolidin-3-amine] | 2.68 | 1130
9 | Cc1noc(-c2ccc([C@H]3CN(C4CCc5cccc(F)c54)C[C@@H]3N(C)C)cc2)n1 (mixture of isomers) [Example 67, rac-(3R,4S)-1-(7-fluoro-2,3-dihydro-1H-inden-1-yl)-N,N-dimethyl-4-[4-(3-methyl-1,2,4-oxadiazol-5-yl)phenyl]pyrrolidin-3-amine] | 3.06 | 1630
10 | Cc1nnc(-c2ccc([C@@H]3CN(C4CCc5cccc(F)c54)C[C@H]3N(C)C)cc2)o1 (mixture of isomers) [Example 68, rac-(3S,4R)-1-(7-fluoro-2,3-dihydro-1H-inden-1-yl)-N,N-dimethyl-4-[4-(5-methyl-1,3,4-oxadiazol-2-yl)phenyl]pyrrolidin-3-amine] | 2.37 | 491
11 | CN(C)[C@H]1CN(C2CCc3cccc(F)c32)C[C@@H]1c1cn(C)c2c(C(=O)O)cccc12 (mixture of isomers) [Example 80, rac-3-[(3S,4R)-4-(dimethylamino)-1-(7-fluoro-2,3-dihydro-1H-inden-1-yl)pyrrolidin-3-yl]-1-methyl-1H-indole-7-carboxylic acid] | 9.44 | 1520
12 | CN(C)[C@H]1CN(C2CCc3cc(F)cc(F)c32)C[C@@H]1c1cn(C)c2ccccc12 (mixture of isomers) [Example 95, rac-(3R,4S)-1-(5,7-difluoro-2,3-dihydro-1H-inden-1-yl)-N,N-dimethyl-4-(1-methyl-1H-indol-3-yl)pyrrolidin-3-amine] | 2.7 | 1720
13 | CN(CCO)C(=O)c1cccc2c([C@H]3CN(C4CCc5cccc(F)c54)C[C@@H]3N(C)C)cn(C)c12 (mixture of isomers) [Example 98, rac-3-[(3S,4R)-4-(dimethylamino)-1-(7-fluoro-2,3-dihydro-1H-inden-1-yl)pyrrolidin-3-yl]-N-(2-hydroxyethyl)-N,1-dimethyl-1H-indole-7-carboxamide] | 1.37 | 126
14 | CNC(=O)c1cccc2c([C@H]3CN(C4CCc5cccc(F)c54)C[C@@H]3N(C)C)cn(C)c12 (mixture of isomers) [Example 99, rac-3-[(3S,4R)-4-(dimethylamino)-1-(7-fluoro-2,3-dihydro-1H-inden-1-yl)pyrrolidin-3-yl]-N,1-dimethyl-1H-indole-7-carboxamide] | 1.91 | 303
15 | CN(C)[C@H]1CN(C2CCc3cccc(F)c32)C[C@@H]1c1cn(C)c2c(C(=O)NC3CC(O)C3)cccc12 (mixture of isomers) [Example 108, rac-3-[(3S,4R)-4-(dimethylamino)-1-(7-fluoro-2,3-dihydro-1H-inden-1-yl)pyrrolidin-3-yl]-N-(3-hydroxycyclobutyl)-1-methyl-1H-indole-7-carboxamide] | 1.5 | 152
16 | CN(C(=O)c1cccc2c([C@H]3CN(C4CCc5cccc(F)c54)C[C@@H]3N(C)C)cn(C)c12)C1CC(O)C1 (mixture of isomers) [Example 109, rac-3-[(3S,4R)-4-(dimethylamino)-1-(7-fluoro-2,3-dihydro-1H-inden-1-yl)pyrrolidin-3-yl]-N-(3-hydroxycyclobutyl)-N,1-dimethyl-1H-indole-7-carboxamide] | 1.6 | 141
17 | CN(C)C1CN(C2CCc3cccc(F)c32)CC1c1cn(C)c2cc(C(=O)N3CCC(O)C3)ccc12 (racemic) [Example 111, rac-{3-[(3S,4R)-4-(dimethylamino)-1-(7-fluoro-2,3-dihydro-1H-inden-1-yl)pyrrolidin-3-yl]-1-methyl-1H-indol-6-yl}[(35)-3-hydroxypyrrolidin-1-yl]methanone] | 2.59 | 171
18 | CN(C)[C@H]1CN(C2CCc3cccc(F)c32)C[C@@H]1c1cn(C)c2c(C(=O)NC3CCS(=O)(=O)C3)cccc12 (mixture of isomers) [Example 115, rac-3-[(3S,4R)-4-(dimethylamino)-1-(7-fluoro-2,3-dihydro-1H-inden-1-yl)pyrrolidin-3-yl]-N-(1,1-dioxo-1lambda~6~-thiolan-3-yl)-1-methyl-1H-indole-7-carboxamide] | 1.73 | 224
19 | CN(C)[C@H]1CN(C2CCc3cccc(F)c32)C[C@@H]1c1cn(C)c2c(C(=O)N3CCC[C@H]3C(N)=O)cccc12 (mixture of isomers) [Example 117, rac-1-{3-[(3S,4R)-4-(dimethylamino)-1-(7-fluoro-2,3-dihydro-1H-inden-1-yl)pyrrolidin-3-yl]-1-methyl-1H-indole-7-carbonyl}-L-prolinamide] | 1.26 | 111
20 | CN(C)[C@H]1CN(C2CCc3cccc(F)c32)C[C@@H]1c1cn(C)c2cc(C(=O)N3CCN(S(C)(=O)=O)CC3)ccc12 (mixture of isomers) [Example 122, rac-{3-[(3S,4R)-4-(dimethylamino)-1-(7-fluoro-2,3-dihydro-1H-inden-1-yl)pyrrolidin-3-yl]-1-methyl-1H-indol-6-yl}[4-(methanesulfonyl)piperazin-1-yl]methanone] | 2.88 | 556
21 | CC(=O)N1CCN(C(=O)c2ccc3c([C@H]4CN(C5CCc6cccc(F)c65)C[C@@H]4N(C)C)cn(C)c3c2)CC1 (mixture of isomers) [Example 123, rac-1-(4-{3-[(3S,4R)-4-(dimethylamino)-1-(7-fluoro-2,3-dihydro-1H-inden-1-yl)pyrrolidin-3-yl]-1-methyl-1H-indole-6-carbonyl}piperazin-1-yl)ethan-1-one] | 3.53 | 1530
22 | CN(C)[C@H]1CN(C2CCc3cccc(O)c32)C[C@@H]1c1cn(C)c2ccccc12 (stereo partly drawn) [Example 97, 3-[(3R,4S)-3-(dimethylamino)-4-(1-methyl-1H-indol-3-yl)pyrrolidin-1-yl]-2,3-dihydro-1H-inden-4-ol] | 33.6 | 
23 | Cc1cccc2c1C(N1C[C@H](c3cn(C)c4ccccc34)[C@@H](N(C)C)C1)CC2 (stereo partly drawn) [Example 100, (3R,4S)-N,N-dimethyl-1-(7-methyl-2,3-dihydro-1H-inden-1-yl)-4-(1-methyl-1H-indol-3-yl)pyrrolidin-3-amine] | 58.4 | 
24 | CN(C)[C@@H]1CN(C2CCc3cccc(F)c32)C[C@H]1c1cn(C)c2c(C(=O)N3CC(F)C3)cccc12 (stereo partly drawn) [Example 104, {3-[(3R,4S)-4-(dimethylamino)-1-(7-fluoro-2,3-dihydro-1H-inden-1-yl)pyrrolidin-3-yl]-1-methyl-1H-indol-7-yl}(3-fluoroazetidin-1-yl)methanone] | 15.3 | 
